{"source": "patent US9265747B2", "about": "“Platinum (IV) complexes for use in dual mode pharmaceutical therapy” (Massachusetts Institute of Technology, priority 2008, dated 2016)", "key": {"[1]": {"test_system": "human cancer NTera-2 cells", "experiment": "JC-1 mitochondrial membrane potential assay, NTera-2 cells", "assay_type": "cell-based", "settings": "100 μM, 4 h and 48 h", "excerpt": "(§1) The following describes a mitochondrial membrane potential assay using compound 1. JC-1 Assay: Mitochondrial attack is associated with a drop in mitochondrial transmembrane potential (Δψm). For this reason Δψm, is an important parameter of mitochondrial function and has been used as an indicator for mitochondrial death. Variation in Δψm can be studied by evaluating the changes in fluorescence intensity of cells stained with lipophilic cationic dye, 5,5′,6,6′-tetrachloro-1,1′,3,3′-tetraethylbenzimidazolylcarbocyanine iodide (JC-1). It can selectively enter mitochondria and reversibly change color from green to red as the membrane potential increases.\n(§2) The negative charge established by the mitochondrial membrane potential allows the lipophilic dye, bearing a delocalized positive charge, to enter the mitochondria where it accumulates. When the critical concentration is exceeded, J-aggregates form, which becomes red. In apoptotic cells, the mitochondrial membrane potential collapses, and the JC-1 can not accumulate within the mitochondria. In these cells, JC-1 remains in the cytoplasm in a green fluorescent monomeric form. Apoptotic cells, showing primarily green fluorescence, are easily differentiated from the healthy cells which show mainly red fluorescence.\n(§3) JC-1 Assay. Normal and NTera-2 cells were cultured on cover slips to a density of 1×10^6 cells/mL and incubated overnight at 37° C. […]"}, "[2]": {"test_system": "A2780, human ovarian carcinoma", "experiment": "MTT assay, A2780 cells", "assay_type": "cell-based", "settings": "A2780 cisplatin sensitive cells, 72 h", "procedure": "A more negative membrane potential might promote translocation of the active, cationic form of cisplatin from the cytoplasm to mitochondria, thus diminishing platination of nuclear DNA. […] Thus, a pair of cisplatin sensitive A2780 and resistant A2780/CP70 ovarian cancer cells were studied (Table 1 and FIG. 10). […] (▴) with (A) cisplatin sensitive A2780 cells and (B) cisplatin resistant A2780/CP70 cells, after 72 h as determined by the MTT assay. The controls were cisplatin and c,c,t-[Pt(NH3)2Cl2(O2CCH3)2]. […] Results for the A2780/CP70 cells indicate that DCA plays a role, in this embodiment, in making cisplatin-resistant cells susceptible towards mitaplatin treatment.\n(§4) MTT Assay. Cytotoxic behavior of compound 1, DCA and cis-DDP were evaluated using the MTT assay. Solutions of the platinum complexes were freshly prepared in sterile PBS before use and quantitated by atomic absorption spectroscopy. Cells were seeded on a 96 well plate (1000 cells per well for NTera-2, U2OS, HeLa; 1400 per well for normal fibriblast; 500 per well for 7B, 10B, 175F and 150×2) in 100 μL DMEM media and incubated for 24 hours. The cells were then treated with compound 1, DCA or cis-DDP, separately at varying concentrations and incubated for 72 hours at 37° C. The cells were then treated with 20 μL of 3-(4,5-dimethylthiazol-2-yl)-2,5-diphenyltetrazolium bromide (MTT) (5 mg/mL in PBS) and incubated for 5 h. The medium was removed, the cells were lysed by adding 100 μl, of DMSO, and the absorbance of the purple formazan was recorded at 550 nm using a BioTek Synergy HT multi-detection microplate plate reader. Each well was performed in triplicate in three independent experiments for each cell line."}, "[3]": {"test_system": "healthy normal fibroblast cells", "experiment": "JC-1 mitochondrial membrane potential assay, normal fibroblasts", "assay_type": "cell-based", "settings": "100 μM, 4 h and 48 h", "excerpt": "as §1, §2, §3"}, "[4]": {"test_system": "human lung cancer A549 cells and normal human lung fibroblasts MRC-5", "experiment": "LIVE/DEAD viability assay in co-culture", "assay_type": "cell-based", "settings": "co-culture A549 and MRC-5, exposure for 24 h", "procedure": "Studies were also conducted on a co-culture of human lung cancer A549 cells and normal human lung fibroblasts MRC-5. […] The assay allowed for the simultaneous determination of live and dead cells in a co-culture by labeling live cells with calcein AM dye, which fluoresces only when cleaved by intracellular esterase enzymes, and ethidium […] (EthD-1), which only enters dead cells with disrupted cell membranes. […] Following mitaplatin or cisplatin exposure for 24 h, cells were stained with calcein AM (green fluorescence) and ethidium homodimer-1 (red fluorescence) to differentiate between live and dead cells, respectively."}, "U2OS, human osteosarcoma": {"test_system": "U2OS, human osteosarcoma", "experiment": "MTT assay, U2OS cells", "assay_type": "cell-based", "settings": "72 hours", "procedure": "(§5) Cell Line and Cell Culture. Healthy normal fibroblast GM61869, human cancer NTera-2, human cervical cancer HeLa, human osteosarcoma cell line U2OS were obtained from the ATCC. Cells were incubated at 37° C. in 5% CO2 and grown in DMEM medium supplemented with 10% fetal bovine serum and 1% penicillin/streptomycin. Cells were passed every 3 to 4 days and restarted from the frozen stock upon reaching pass number 20.\nas §4"}, "[5]": {"test_system": "normal fibroblasts and cancerous NTera-2 cells", "experiment": "Co-culture of normal fibroblasts and cancerous NTera-2 cells", "assay_type": "cell-based, human", "excerpt": "Cisplatin kills both NTera-2 and normal fibroblast cells"}, "[6]": {"test_system": "healthy normal fibroblast cells", "experiment": "TMRM mitochondrial membrane potential assay, normal fibroblasts", "assay_type": "cell-based", "settings": "listed as compound 1", "procedure": "TMRM Assay. Analysis of mitochondrial membrane potential (Δψm) was carried out by using tetramethyl rhodamine methyl ester (TMRM). A similar procedure as mentioned above for the JC-1 assay was followed. Before fixing the cells, they were treated with 2 μM of TMRM for 30 min at 37° C."}, "normal MRC-5 cells": {"test_system": "normal MRC-5 cells", "experiment": "Annexin-V flow cytometry, normal MRC-5 cells", "assay_type": "cell-based, human", "settings": "72 h, cisplatin at 10 μM", "procedure": "In order to quantify mitaplatin-induced apoptosis in cancer cells, an Annexin-V was performed and analyzed using flow cytometry. With this analysis, the percentage of apoptotic cells found was determined at 72 h after exposure of mitaplatin and cisplatin."}, "[7]": {"test_system": "NTera-2, human testicular cancer", "experiment": "MTT assay, NTera-2 cells", "assay_type": "cell-based", "settings": "72 hours", "procedure": "as §5, §4"}}, "note": "Entries after “also recorded” stand apart in the source; their conditions may differ."}
{"smiles": "[NH2][Pt]([NH2])([Cl])([Cl])([O]C(=O)C(Cl)Cl)[O]C(=O)C(Cl)Cl", "note": "[Mitaplatin, c,c,t-[Pt(NH3)2Cl2(O2CCHCl2)2]]", "values": [{"measurement": "effect on mitochondria (JC-1 fluorescence)", "setting": "[1]", "value": "attacks the mitochondria"}, {"measurement": "IC50", "setting": "[2]", "value": 1100, "unit": "nM"}, {"measurement": "effect on mitochondria (JC-1 fluorescence)", "setting": "[3]", "value": "had no effect"}, {"measurement": "cell death in co-culture, LIVE/DEAD staining", "setting": "[4]", "value": "selectively induced cell death in human cancer A549 cells, but not in normal MRC-5 cells"}, {"measurement": "IC50", "setting": "U2OS, human osteosarcoma", "value": 6400, "unit": "nM"}, {"measurement": "cell killing in co-culture", "setting": "[5]", "value": "selectively kills the cancer cells"}, {"measurement": "mitochondrial membrane potential (Δψm), TMRM", "setting": "[6]", "value": "had no effect; also recorded: does not change the Δψm"}, {"measurement": "apoptosis (Annexin-V)", "setting": "normal MRC-5 cells", "value": "did not show any detectable apoptosis"}, {"measurement": "IC50", "setting": "[7]", "value": 51, "unit": "nM"}]}
